Test results as given in patent publication US10316057B2, “Tandem facial amphiphiles” (WISCONSIN ALUMNI RESEARCH FOUNDATION, priority 2011, dated 2019).
Where a name gives a salt, the structure may show the parent alone.

System: leucine transporter (LeuT WT)
Experiment: LeuT functionality assay ([3H]-Leu binding by scintillation proximity assay)
Design: species or system Aquifex aeolicus
Details: room temperature
Excerpt: The wild type of bacterial leucine transporter (LeuT WT) was examined because the functional state of this membrane protein is readily assessed by using a scintillation proximity assay (SPA) (Quick et al., Proc. Natl. Acad. Sci. USA 2007, 104, 3603-3608) to monitor binding of radiolabelled leucine. LeuT was initially extracted with DDM and then diluted with amphiphile-containing solutions to generate final TFA concentrations of 0.04 wt % or 0.2 wt % (residual DDM=0.005 wt %). Control samples had 0.05 wt % or 0.2 wt % DDM (overall, the final concentrations were CMC+0.04 wt % or CMC+0.2 wt %).
The wild type of the leucine transporter (LeuT WT) from Aquifex aeolicus was expressed in Escherichia coli essentially as described by Deckert et al. (Nature 392, 353-358 (1998)). The pET16b-LeuT WT-8His plasmid was kindly provided by Dr. Eric Gouaux, Vollum Institute, Portland Oreg. LeuT WT was extracted from isolated bacterial membranes solubilized with 1% DDM, bound to Ni^2+-affinity Chelating Sepharose Fast Flow resin (GE Healthcare, USA), and eluted in buffer consisted of 20 mM Tris-HCl (pH 8.0), 1 mM NaCl, 199 mM KCl, 0.05% DDM and 300 mM imidazole. […] After incubation at room temperature, at the indicated time points, samples were centrifuged and the protein concentration was determined by absorbance measurements at 280 nm. Concomitantly, [^3H]-Leu binding was determined using scintillation proximity assay (SPA) (Quick and Javitch, Proc. Natl. Acad. Sci. USA 104, 3603-3608 (2007)), with the reaction mixture consisted of 5 μL from the respective samples, 33.3 nM [^3H]-Leu (PerkinElmer, USA) and copper chelate (His-Tag) YSi beads (GE Healthcare). […] Normalized results are expressed as mean±SEM (n=2), as illustrated in FIG. 11 (long-term solubility of LeuT WT incubated in the presence of TFA-1, TFA-3, and DDM at (a) CMC+0.04 wt % or (b) CMC+0.2 wt % at room temperature).

Structure (SMILES)	maintaining LeuT WT function over 12 days (lower amphiphile concentration, CMC+0.04 wt %)	maintaining LeuT WT function over 12 days (higher amphiphile concentration, CMC+0.2 wt %)
CCCCCCCCCCCCO[C@@H]1O[C@H](CO)[C@@H](O[C@H]2O[C@H](CO)[C@@H](O)[C@H](O)[C@H]2O)[C@H](O)[C@H]1O [DDM, dodecyl-β-D-maltoside, reference compound]	slightly better than the TFAs	–
C[C@H](CCC(=O)N(C)CCCN(C)C(=O)CC[C@@H](C)[C@H]1CC[C@H]2[C@@H]3CC[C@@H]4C[C@H](O[C@@H]5O[C@H](CO)[C@@H](O[C@H]6O[C@H](CO)[C@@H](O)[C@H](O)[C@H]6O)[C@H](O)[C@H]5O)CC[C@]4(C)[C@H]3C[C@H](O[C@@H]3O[C@H](CO)[C@@H](O[C@H]4O[C@H](CO)[C@@H](O)[C@H](O)[C@H]4O)[C@H](O)[C@H]3O)[C@]12C)[C@H]1CC[C@H]2[C@@H]3CC[C@@H]4C[C@H](O[C@@H]5O[C@H](CO)[C@@H](O[C@H]6O[C@H](CO)[C@@H](O)[C@H](O)[C@H]6O)[C@H](O)[C@H]5O)CC[C@]4(C)[C@H]3C[C@H](O[C@@H]3O[C@H](CO)[C@@H](O[C@H]4O[C@H](CO)[C@@H](O)[C@H](O)[C@H]4O)[C@H](O)[C@H]3O)[C@]12C [TFA-1]	–	matched DDM at the lower concentration
